These results are taken from patent US20240391932A1, “COMPOUNDS, COMPOSITIONS AND METHODS” (Nico Therapeutics, Inc., priority 2021, published 2024).

The IC50 is the midpoint of a concentration-inhibition curve. A high value points to weaker potency in that assay.

This assay has as its system NLRP3. Description: IL-1β secretion assay in PMA-differentiated, LPS/nigericin-stimulated THP-1 cells (ELISA). The conditions noted are these: Homo sapiens, 25 ng/mL LPS, nigericin. The format is cell-based. As for the experimental part:
Compounds as provided herein were tested in the following assay. Cell culture medium employed contained RPMI 1640 medium (89%), FBS (10%), Pen/Strep (1%), and 2-mercaptoethanol (0.05 mM). Freezing medium was made up of 90% FBS and 10% DMSO. THP-1 cells were removed from the liquid nitrogen and placed into a 37° C. water bath to thaw, until signs of ice dissipated. The cells were then added to 9 mL of warm cell culture medium and centrifuged for 5 minutes at 1000 rpm. The supernatant was discarded, and the cells were resuspended in new cell culture medium. THP-1 cells were then split and cultured in the cell culture medium, being passaged every 2-3 days with the cell density will be maintained between 5×10^5 and 1.5×10^6 viable cells/mL.
PMA was dissolved in DMSO to make a stock solution at 5 mg/ml and stored in 10 μl aliquots at −20° C. for single use. PMA is added to normal growth medium. LPS was diluted with 1 mL of water solution to provide a 1 mg/mL stock solution and stored in 15 μl aliquots at −20° C. for single use. Nigericin is diluted in ice cold 100% ethanol to 5 mg/ml (6.7 mM) and stored in 75 μL aliquots at −20° C. for single use. Serum-free media contains RPMI 1640 medium (99%), Pen/Strep (1%), and 2-mercaptoethanol (0.05 mM). The two control conditions used to qualify and normalize test compound dose-response curves were as follows: High Control=25 ng/mL LPS, 5 μM Nigericin, 0.5% DMSO, Low Control=25 ng/ml, LPS, 0.5% DMSO.
THP-1 cells were diluted to provide a suspension at a concentration of 1.0×10^6 cells/mL with the total volume of suspension required to enable the desired number of assay plates. The growth media was supplemented with PMA (5 ng/mL final concentration) and the cells were incubated at 37° C. under a humidified atmosphere of 5% CO2 for 40 h.
All media was carefully aspirated from each culture flask. The cells were washed carefully with 1× DPBS. The cells were then briefly digested with trypsin LE for 5 minutes at 23° C. and immediately resuspended in cell growth media. After resuspension, the cells were centrifuged at 1000 rpm for 3 minutes and the supernatant was discarded. The cells were resuspended in DPBS and once again centrifuged at 1000 rpm for 5 minutes. The supernatant was discarded and the cell pellet was resuspended in serum-free media supplemented with LPS (25 ng/mL final concentration) to enable the distribution of 30K THP-1 cells within 45 μL of media into each well of 384-well PDL-coated plates. The 384-well plates were then incubated at 37° C. under a humidified atmosphere of 5% CO2 for 2 h. Following this period, test compounds were dispensed by Tecan across the desired concentration range with all wells normalized to a final 0.5% DMSO concentration. The plates were then then incubated at 37° C. under a humidified atmosphere of 5% CO2 for 1 h. Following this period, 5 μL of the 5 mg/mL nigericin stock solution was added to each of the appropriate wells and plates were centrifuged at 1000 rpm for 30 seconds. The plates were the immediately reintroduced to the incubator at 37° C. under a humidified atmosphere of 5% CO2 for 2 h. After this time, 35 μL/well of supernatant was collected and transferred into v-bottom plate and centrifuged at 1000 rpm for 1 minute. These supernatant aliquots were analyzed using an IL-Iβ detection kit as described below. If needed, the test samples could be snap frozen and stored at −80° C. until analyzed.
To prepare each ELISA plate, capture antibody (mAb Mt175) was diluted with PBS to a final concentration of 2 μg/mL and then 20 μL of this solution was added to each well of the ELISA plate. Each plate was allowed to incubate overnight at 4° C. The next day, the capture antibody solution was removed and discarded. Each ELISA plate was washed 4 times with PBST followed by the addition of 25 uL/well of blocking buffer (Licor-927-40010) supplemented with 0.1% Tween 20. Each ELISA plate was then allowed to incubate for 1 hour at 23° C. […]
In general terms: ELISA stands for enzyme-linked immunosorbent assay.

The structures appear in SMILES notation.

Take `CC1(O)CC(NC(=O)Cn2nc(C(F)F)n3c(cc4sccc43)c2=O)C1` (stereo not drawn) [Example 3, 2-(5-(difluoromethyl)-8-oxothieno[2′,3′:4,5]pyrrolo[1,2-d][1,2,4]triazin-7(8H)-yl)-N-(3-cis-hydroxy-3-methylcyclobutyl)acetamide]: the IC50 came out at 101 nM. Further, the IC50 (class symbol) is less than 10000 nM.
`O=C(Cn1nc(C(F)F)n2c(cc3sccc32)c1=O)Nc1ncccn1` [Example 2, 2-(5-(difluoromethyl)-8-oxothieno[2′,3′:4,5]pyrrolo[1,2-d][1,2,4]triazin-7(8H)-yl)-N-(pyrimidin-2-yl)acetamide] had an IC50 of 341 nM. Besides, under “class symbol”, the IC50 is less than 10000 nM.
Regarding `O=C(Cn1nc(C(F)F)n2c(cc3sccc32)c1=O)Nc1ncc(F)cn1` [Example 1, 2-(5-(difluoromethyl)-8-oxothieno[2′,3′:4,5]pyrrolo[1,2-d][1,2,4]triazin-7(8H)-yl)-N-(5-fluoropyrimidin-2-yl)acetamide], the IC50 stood at 162 nM. For the setting “class symbol”, this molecule had a 50% inhibitory concentration (IC50) of less than 10000 nM.
Take `O=C(Cn1nc(C(F)F)n2c(cc3scnc32)c1=O)Nc1ncc(F)cn1` [Example 6, 2-(5-(difluoromethyl)-8-oxothiazolo[5′,4′:4,5]pyrrolo[1,2-d][1,2,4]triazin-7(8H)-yl)-N-(5-fluoropyrimidin-2-yl)acetamide]: the midpoint of inhibition, the IC50, lay at 149 nM. This molecule returned a concentration for half-maximal inhibition (IC50) (class symbol) of less than 10000 nM.
The molecule `N#Cc1cnc(NC(=O)Cn2nc(C(F)F)n3c(cc4sccc43)c2=O)c(F)c1` [Example 4, N-(5-cyano-3-fluoropyridin-2-yl)-2-[12-(difluoromethyl)-9-oxo-5-thia-1,10,11-triazatricyclo[6.4.0.02,6]dodeca-2(6),3,7,11-tetraen-10-yl]acetamide] registered an IC50 of 252 nM. For the setting “class symbol”, this molecule gave an IC50 of less than 10000 nM.
Regarding `O=C(Cn1nc(CF)n2c(cc3sccc32)c1=O)Nc1ncc(F)cn1` [Example 5, 2-(5-(fluoromethyl)-8-oxothieno[2′,3′:4,5]pyrrolo [1,2-d][1,2,4]triazin-7(8H)-yl)-N-(5-fluoropyrimidin-2-yl)acetamide], the IC50 was 94 nM. Besides, the IC50 (class symbol) was less than 10000 nM.
